Assay results as given in patent publication US12150926B2 (SICHUAN JIUZHANG BIOLOGICAL SCIENCE AND TECHNOLOGY CO., LTD., priority 2018, dated 2024).

How the values were obtained:
[1] = tested on: transplanted tumor in S180 sarcoma-bearing KM mice; assay: In vivo inhibitory effect of chlorogenic acid on S180 sarcoma transplantation in KM mice (Experimental example 1); set-up: species or system mouse; key to growth volume of transplanted tumor: V = 0.52 × L × W² (long × shortest diameter²), in cm³; details: for growth volume of transplanted tumor: x ± s, n = 10; for inhibitory effect on the growth volume of transplanted tumors (in words): at different time points, compared with negative control group, chlorogenic acid systemic, local and systemic+local groups 30 mg/kg, ADM 2 mg/kg; for Tumor inhibiton rate: from tumor weight vs negative group; for Tumor weight: at termination
Experimental: (§1) KM mice, half male and half female, weighing 17-24 g.
S180 cell lines were mouse sarcoma cells, and suspendedly grew in DH medium, containing 20% calf serum, 1 mmol/L glutamine, 100 U·ml^−1 penicillin, and 100 μg·ml^−1 streptomycin, then cultured in 37° C. 5% CO2, saturated humidity incubator. The medium was changed every 2-3 days for passage.
S180 cells in the logarithmic growth phase were harvested, centrifuged at 1000 rpm for 5 min, washed twice, and the number of viable cells was counted by trypan blue staining. The cells were inoculated into the abdominal cavity of KM mice as soon as possible, and these mice were used as breeding mice. 2) In vivo experiment The ascites was extracted from 7 to 10 days, and the number of cells was adjusted to (about 1×10^6 cells) after dilution. The cell suspension in ascites was inoculated subcutaneously in the axillary of the left forelimb of the mice at 0.2 ml/animal.
(§2) Negative group: intraperitoneally injected, once a day, receiving an equal volume of normal saline. On the 5th day after inoculation, the tumor volume was measured (V=0.52×L (the long diameter of the transplanted tumor)×W^2 (the shortest diameter of the transplanted tumor)), and the mice were weighed every three days. The experiment was terminated when the average tumor size in the negative group was more than 1 g (the tumor volume was about […]). The mice were sacrificed by cervical vertebra luxation and weighed, the tumor was removed, and the tumor inhibitory rate was calculated. Tumor inhibitory rate %=[1−(average tumor weight in drug group/average tumor weight in negative group)]×100%.

[2] = tested on: transplanted tumor in S180 sarcoma-bearing KM mice; assay: In vivo inhibitory effect of chlorogenic acid composition on S180 sarcoma transplantation in KM mice (Experimental example 2); set-up: species or system mouse; key to growth volume of transplanted tumor: tumor volume V=0.52×L×W² (long × shortest diameter²); details: for inhibitory effect on the growth volume of transplanted tumors (in words): at different time points, compared with negative control group, i.p. once a day, 30 mg/kg (ADM 2 mg/kg); for Tumor weight / Tumor inhibition rate / growth volume of transplanted tumor: intraperitoneally, once a day; for Tumor weight: at termination; for Tumor inhibition rate: from tumor weight vs negative group; for growth volume of transplanted tumor: x ± s, n = 10
Experimental: S180 sarcoma transplantation in KM mice
as §1
S180 cell lines were mouse sarcoma cells, and suspendedly grew in DH medium, containing 20% calf serum, 1 mmol/L glutamine, 100 U·ml^−1 penicillin, and 100 μg·ml^−1 streptomycin, then cultured in 37° C., 5% CO2, saturated humidity incubator. The medium was changed every 2-3 days for passage.
S180 cells in the logarithmic growth phase were harvested, centrifuged at 1000 rpm for 5 min, washed twice, and the number of viable cells was counted by trypan blue staining. The cells were inoculated into the abdominal cavity of KM mice as soon as possible, and these mice were used as breeding mice.
The ascites was extracted from 7 to 10 days, and the number of cells was adjusted to (about 1×10^6 cells) after dilution. The cell suspension in ascites was inoculated subcutaneously in the axillary of the left forelimb of the mice at 0.2 ml/animal. […] Coumaroylquinic acid group: intraperitoneally injected, once a day, at a dose of 30 mg·kg^−1.
Negative group: intraperitoneally injected, once a day, receiving an equal volume of normal saline.
as §2, with “On” for “Negative group: intraperitoneally injected, once a day, receiving an equal volume of normal saline. On”

[3] = systemic + local administration: i.v. once a day 30 mg/kg plus s.c. peri-lesion once every 5 days 30 mg/kg
[4] = time after inoculation 74, 30 mg/kg
[5] = time after inoculation 134 [sic], 30 mg/kg
[6] = time after inoculation printed 94, 30 mg/kg
[7] = time after inoculation printed 114, 30 mg/kg

Molecule: COc1cccc2c1C(=O)c1c(O)c3c(c(O)c1C2=O)C[C@@](O)(C(=O)CO)C[C@@H]3O[C@H]1C[C@H](N)[C@H](O)[C@H](C)O1 [ADM, adriamycin, reference compound]
- growth volume of transplanted tumor ([1]; 5 d after inoculation, intraperitoneally, once a day, 2 mg/kg): 0.096 ± 0.041
- growth volume of transplanted tumor ([1]; 9 d after inoculation, intraperitoneally, once a day, 2 mg/kg): 0.199 ± 0.080
- growth volume of transplanted tumor ([1]; 11 d after inoculation, intraperitoneally, once a day, 2 mg/kg): 0.333 ± 0.159
- growth volume of transplanted tumor ([1]; 13 d after inoculation, intraperitoneally, once a day, 2 mg/kg): 0.478 ± 0.241
- inhibitory effect on the growth volume of transplanted tumors (in words) [1]: significant inhibitory effect
- Tumor inhibiton rate ([1]; intraperitoneally, once a day, 2 mg/kg, listed as Adriamycin (ADM), 2 mg/kg): 56.95%
- inhibitory effect on the growth volume of transplanted tumors (in words) [2]: significant inhibitory effect
- Tumor weight ([2]; 2 mg/kg): 1.132 ± 0.552 g
- Tumor inhibition rate ([2]; 2 mg/kg, listed as Adriamycin (ADM), 2 mg/kg): 53.38%
- growth volume of transplanted tumor ([2]; time after inoculation 74, 2 mg/kg): 0.171 ± 0.082
- growth volume of transplanted tumor ([2]; time after inoculation 134 [sic], 2 mg/kg): 0.492 ± 0.204
- growth volume of transplanted tumor ([2]; time after inoculation printed 54, 2 mg/kg): 0.116 ± 0.073
- growth volume of transplanted tumor ([2]; time after inoculation printed 114, 2 mg/kg): 0.363 ± 0.128

Molecule: O=C(/C=C/c1ccc(O)c(O)c1)O[C@@H]1C[C@](O)(C(=O)O)C[C@@H](O)[C@H]1O [Chlorogenic acid]
- growth volume of transplanted tumor ([1]; 5 d after inoculation, local administration: subcutaneously into periphery of in situ lesion, once a day, 30 mg/kg): 0.152 ± 0.028
- growth volume of transplanted tumor ([1]; 5 d after inoculation, systemic administration: intravenously, once a day, 30 mg/kg): 0.141 ± 0.032
- growth volume of transplanted tumor ([1]; 7 d after inoculation, local administration: subcutaneously into periphery of in situ lesion, once a day, 30 mg/kg): 0.221 ± 0.047
- growth volume of transplanted tumor ([1]; 7 d after inoculation, systemic + local administration: i.v. once a day 30 mg/kg plus s.c. peri-lesion once every 5 days 30 mg/kg): 0.186 ± 0.065
- growth volume of transplanted tumor ([1]; 7 d after inoculation, systemic administration: intravenously, once a day, 30 mg/kg): 0.205 ± 0.061
- growth volume of transplanted tumor ([1]; 9 d after inoculation, local administration: subcutaneously into periphery of in situ lesion, once a day, 30 mg/kg): 0.311 ± 0.064
- growth volume of transplanted tumor ([1]; 9 d after inoculation, systemic + local administration: i.v. once a day 30 mg/kg plus s.c. peri-lesion once every 5 days 30 mg/kg): 0.243 ± 0.066
- growth volume of transplanted tumor ([1]; 9 d after inoculation, systemic administration: intravenously, once a day, 30 mg/kg): 0.289 ± 0.082
- growth volume of transplanted tumor ([1]; 11 d after inoculation, local administration: subcutaneously into periphery of in situ lesion, once a day, 30 mg/kg): 0.535 ± 0.078
- growth volume of transplanted tumor ([1]; 11 d after inoculation, systemic + local administration: i.v. once a day 30 mg/kg plus s.c. peri-lesion once every 5 days 30 mg/kg): 0.344 ± 0.127
- growth volume of transplanted tumor ([1]; 11 d after inoculation, systemic administration: intravenously, once a day, 30 mg/kg): 0.504 ± 0.158
- growth volume of transplanted tumor ([1]; 13 d after inoculation, local administration: subcutaneously into periphery of in situ lesion, once a day, 30 mg/kg): 0.651 ± 0.154
- growth volume of transplanted tumor ([1]; 13 d after inoculation, systemic + local administration: i.v. once a day 30 mg/kg plus s.c. peri-lesion once every 5 days 30 mg/kg): 0.446 ± 0.157
- growth volume of transplanted tumor ([1]; 13 d after inoculation, systemic administration: intravenously, once a day, 30 mg/kg): 0.593 ± 0.213
- inhibitory effect on the growth volume of transplanted tumors (in words) [1]: significant inhibitory effect
- Tumor weight ([1]; local administration: s.c. peri-lesion, once a day, 30 mg/kg): 1.324 ± 0.239 g
- Tumor inhibiton rate ([1]; local administration: s.c. peri-lesion, once a day, 30 mg/kg, 30 mg/kg): 41.36%
- Tumor weight [1, 3]: 0.957 ± 0.308 g
- Tumor inhibiton rate [1, 3]: 57.62%
- Tumor weight ([1]; systemic administration: intravenously, once a day, 30 mg/kg): 1.183 ± 0.215 g
- Tumor inhibiton rate ([1]; systemic administration: intravenously, once a day, 30 mg/kg, 30 mg/kg): 47.61%
- inhibitory effect on the growth volume compared with the systemic administration group and the local administration group (in words) ([1]; systemic+local administration group): better inhibitory effect
- inhibitory effect on the growth volume of transplanted tumors (in words) [2]: significant inhibitory effect
- Tumor inhibition rate ([2]; 30 mg/kg, 30 mg/kg): 48.64%
- growth volume of transplanted tumor [2, 4]: 0.242 ± 0.053
- growth volume of transplanted tumor [2, 5]: 0.811 ± 0.142
- growth volume of transplanted tumor [2, 6]: 0.326 ± 0.071
- growth volume of transplanted tumor [2, 7]: 0.453 ± 0.093

Molecule: coumaroylquinic acid
- inhibitory effect on the growth volume of transplanted tumors (in words) [2]: didn't show inhibitory effect
- Tumor weight ([2]; 30 mg/kg): 2.303 ± 0.475 g
- Tumor inhibition rate ([2]; 30 mg/kg, 30 mg/kg): 5.15%
- Tumor inhibition rate ([2]; 30 mg/kg, listed as coumaroylquinic acid, 30 mg/kg): 5%
- growth volume of transplanted tumor [2, 4]: 0.364 ± 0.074
- growth volume of transplanted tumor [2, 5]: 1.106 ± 0.137
- growth volume of transplanted tumor ([2]; time after inoculation printed 54, 30 mg/kg): 0.209 ± 0.058
- growth volume of transplanted tumor [2, 6]: 0.573 ± 0.093
- growth volume of transplanted tumor [2, 7]: 0.898 ± 0.075
